In patent US20220062296A1, “COMBINATIONS OF GABAA ALPHA 5 AGONISTS AND SV2A INHIBITORS AND METHODS OF USING IN THE TREATMENT OF COGNITIVE IMPAIRMENT” (AGENEBIO, INC., priority 2020, published 2022):
“Also recorded” adds a separate entry of the source.

What was measured:
[1] = Dynamic vapor sorption (DVS); type: physicochemical; details: for form recovered after the DVS experiment (XRPD): post DVS
Procedure: Dynamic vapor sorption data was collected on a Surface Measurement System DVS Intrinsic instrument. The samples were not dried prior to analysis. Sorption and desorption data were collected over a range from 5% to 95% RH in 10% RH increments under a nitrogen purge. The equilibrium criteria used for the analyses were 0.001 dm/dt weight change in 5 minutes with a minimum step time of 30 minutes and maximum equilibration time of 180 minutes with a 3-minute data logging interval. Data were not corrected for the initial moisture content of the sample. The samples were identified as having low, limited or significant hygroscopicity based on the definitions in the below table.

[2] = Differential scanning calorimetry / thermogravimetry (DSC, TGA); type: physicochemical; details: 10° C./min
Procedure: DSC was performed using a Mettler-Toledo DSC3+ differential scanning calorimeter. A tau lag adjustment is performed with indium, tin, and zinc. The temperature and enthalpy are adjusted with octane, phenyl salicylate, indium, tin and zinc. The adjustment is then verified with octane, phenyl salicylate, indium, tin, and zinc. The sample was placed into a hermetically sealed aluminum DSC pan, the weight was accurately recorded, and the sample was inserted into the DSC cell. A weighed aluminum pan configured as the sample pan was placed on the reference side of the cell. The pan lid was pierced prior to sample analysis. The samples were analyzed from −25° C. to 250° C. at 10° C./min.
Thermogravimetric analyses were performed using a Mettler-Toledo TGA/DSC3+ analyzer. Temperature calibration was performed using calcium oxalate, indium, tin, and zinc. The sample was placed in an aluminum pan. The pan was hermetically sealed, the lid was pierced, and the pan was then inserted into the TG furnace. A weighed aluminum pan configured as the sample pan was placed on the reference platform. The furnace was heated under nitrogen. Samples were analyzed from 25° C. to 350° C. at 10° C./min.

[3] = Storage and stress stability of crystalline forms (XRPD); type: physicochemical; details: for stability under ambient storage: ambient conditions
Procedure: XRPD patterns were collected with a PANalytical X'Pert PRO MPD or a PANalytical Empyrean diffractometer using an incident beam of Cu radiation produced using an Optix long, fine-focus source. An elliptically graded multilayer mirror was used to focus Cu Kα X-rays through the specimen and onto the detector. Prior to the analysis, a silicon specimen (NIST SRM 640e) was analyzed to verify the observed position of the Si 111 peak is consistent with the NIST-certified position. A specimen of the sample was sandwiched between 3-μm-thick films and analyzed in transmission geometry. A beam-stop, short antiscatter extension, and antiscatter knife edge were used to minimize the background generated by air. Sober slits for the incident and diffracted beams were used to minimize broadening from axial divergence. Diffraction patterns were collected using a scanning position-sensitive detector (X'Celerator) located 240 mm from the specimen and Data Collector software v. 5.5.

[4] = test system: memory-impaired aged (AI) rats; experiment: Radial arm maze task with 2-hr retention interval, acute brivaracetam or seletracetam; type: in vivo, rat; details: doses 0.0625-4 mg/kg i.p.; repeated measures ANOVA
Procedure: (§1) The radial arm maze experiments used acute administration of seletracetam (0-4 mg/kg), brivaracetam (0-4 mg/kg), or saline vehicle given by intraperitoneal injection (in a volume of 1 ml/kg) 30-40 min prior to test sessions.
A radial arm maze (RAM) task was used to assess effects of acute drug treatment with seletracetam and brivaracetam. This protocol allowed within-subject assessment across drugs at different doses. The radial maze consisted of eight arms projecting from each side of an octagonal center platform, with a food well located at the distal end of each arm. Plexiglas blocks could be positioned to prevent entry into any arm. Extra-maze cues were provided in the room surrounding the maze and illumination was provided by an overhead light.
Pre-training, as described in detail in Chappell et al. Neuropharmacology 37: 481-487, (1998), consisted of habituation, standard win-shift training, and win-shift training with delays interposed between information and memory test phases. Drug treatments began two days after the completion of pre-training. Three arms were blocked at the beginning of each trial (information phase). The identity and configuration of the blocked arms were varied across trials. Food-deprived rats were allowed to retrieve food reward (Kellogg's Froot Loops™ cereal) from the five unblocked arms. […]

[5] = test system: MAM-treated rats; details: cited from earlier work
[6] = Competitive interconversion slurry experiments between crystalline forms (relative thermodynamic stability); type: physicochemical; details: ambient temperature; Form E also 55° C. and 77° C.
Procedure: Interconversion experiments were performed to identify the most thermodynamically stable anhydrous form of Compound 1 (Table 19). […] The choice of solvent affects the kinetics of polymorph conversion and not the thermodynamic relationship between polymorphic forms.
Various combinations of Forms B, E, F, and Material D were slurried with Form A at ambient and elevated temperatures (for experiments involving Form E). Different solvent systems were used and included a variety of water activities. Saturated solutions were generated and then added to the mixtures composed of approximately equivalent quantities of the forms. The mixtures were slurried for a particular duration of time and the solids harvested and analyzed by XRPD.

[7] = test system: aged-impaired rats; experiment: Water maze probe test after chronic brivaracetam (osmotic mini-pumps); type: in vivo, rat; details: 2 mg/kg/day
Procedure: as §1
Rats were trained and tested in a novel water maze environment to assess the effect of drug treatment. The water maze used here was housed in a different building and was surrounded by curtains with a novel set of patterns relative to the maze used for initial assessment of cognitive status. The training protocol consisted of 6 trials per day for 2 days to locate a submerged escape platform. On each trial, a rat was released in the maze from one of four equally spaced starting positions around the perimeter of the pool. The starting position varied from trial to trial. […] The rat was then removed from the platform and placed in a holding cage for another 40 s before the next trial. Approximately 24 hr after the last training trial, a probe test in the absence of the escape platform was given to assess spatial memory.

In the case of COCc1nnc2n1Cc1c(C#Cc3cnc(OC)s3)ncn1-c1ccc(Cl)cc1-2 [Form F], the “hygroscopicity (DVS isotherm)” value ([1]; 5% to 95% RH) is reported as “limited hygroscopicity”, the “weight gain on sorption” value ([1]; from 5-95% RH) is reported as 1.8% and the “form recovered after the DVS experiment (XRPD)” value [1] is reported as “still Form F”. The “weight loss upon desorption” value ([1]; significant hysteresis) was 1.5%, the “onset of DSC exotherm due to decomposition” value (from here on “onset of DSC exotherm due”) [2] was “above 120 °C” and the “behaviour upon exposure to 100° C.” value ([3]; 100° C.) was “does dehydrate”. The “stability under vacuum at ambient temperature” value ([3]; vacuum, ambient temperature) was “remain unchanged for 5 days”.

For CC[C@@H](C(N)=O)N1C[C@H](C=C(F)F)CC1=O [seletracetam, (2S)-2-[(4S)-4-(2,2-difluoroethenyl)-2-oxopyrrolidin-1-yl]butanamide], the “number of errors in the retention phase after the 2-hr delay” value [4] was “significant effect as a function of dose”.

For C#Cc1ccc2c(c1)C(c1ccccc1F)=N[C@H](C)c1c(C(=O)OCC)ncn1-2 [SH-053-2′F—R—CH3], the “number of spontaneously active DA neurons in the ventral tegmental area (VTA)” value ([5]; MAM rats, systemic or infused into the ventral HPC) is given as “reduces the number of spontaneously active DA neurons”, the “increased locomotor response to amphetamine” value ([5]; MAM-treated rats) is given as “is reduced” and the “cortical-evoked responses of HPC neurons” value ([5]; saline-treated and MAM-treated animals) is given as “diminished cortical-evoked responses”.

With COCc1nnc2n1Cc1c(C#Cc3cnc(OC)s3)ncn1-c1ccc(Cl)cc1-2 [Form B] the “onset of DSC exotherm due” value [2] was “about 190 °C” and the “outcome of solvent-mediated interconversion with Form A (relative thermodynamic stability)” value (from here on “outcome … (relative thermodynamic stability)”) [6] was “convert to Form A”.

For COCc1nnc2n1Cc1c(C#Cc3cnc(OC)s3)ncn1-c1ccc(Cl)cc1-2 [Form C], the “onset of DSC exotherm due” value [2] was 190 °C, the “behaviour upon overnight exposure to 80° C.” value ([3]; 80° C., overnight) was “desolvate to Form B” and the “stability under ambient storage” value [3] was “remain unchanged for 9 weeks”.

With COCc1nnc2n1Cc1c(C#Cc3cnc(OC)s3)ncn1-c1ccc(Cl)cc1-2 [Form E] the “onset of DSC exotherm due” value [2] was ~201 °C and the “outcome … (relative thermodynamic stability)” value [6] was “metastable relative to Form A”.

For COCc1nnc2n1Cc1c(C#Cc3cnc(OC)s3)ncn1-c1ccc(Cl)cc1-2 [Material D], the “onset of DSC exotherm due” value [2] was ~174 °C, the “stability under ambient storage” value [3] was “Material D still remained” and the “outcome … (relative thermodynamic stability)” value [6] was “convert to Form A”.

For CCC[C@@H]1CC(=O)N([C@@H](CC)C(N)=O)C1 [brivaracetam, (2S)-2-[(4R)-2-oxo-4-propylpyrrolidin-1-yl]butanamide], the “number of errors in the retention phase after the 2-hr delay” value [4] was “significant effect as a function of dose”, the “spatial bias for the target quadrant compared to the other control quadrants” value ([7]; osmotic mini-pumps, started two weeks before, p=0.010) was “significant spatial bias for the target quadrant” and the “time in the target quadrant vs vehicle-treated rats” value ([7]; p=0.018) was “significantly more time in the target quadrant”. The “time in the target annulus vs vehicle-treated rats” value ([7]; p=0.036) was “significantly more time in the target annulus”.

With COCc1nnc2n1Cc1c(C#Cc3cnc(OC)s3)ncn1-c1ccc(Cl)cc1-2 [Form A] the “hygroscopicity (DVS isotherm)” value ([1]; 5% to 95% RH) was “low hygroscopicity; also recorded: limited hygroscopicity”, the “weight change through the sorption/desorption cycle” value ([1]; 5% to 95% RH, no hysteresis) was ~0.3% and the “form recovered after the DVS experiment (XRPD)” value [1] was “same as the starting material”. For the same compound, the “onset of DSC exotherm due” value [2] was “about 207 °C” and the “outcome … (relative thermodynamic stability)” value [6] was “Form A prevailed for each experiment”.
